Results from patent US11339161B2, “Triazolo pyridines as modulators of gamma-secretase” (Boehringer Ingelheim International GmbH, priority 2017, dated 2022).
Like-named read-outs stand apart in the source and are kept apart here.

Assays:
MAP4K2 (GCK) = target: T1, MAP4K2 (GCK) (Homo sapiens, UniProt Q12851); assay: Z'-LYTE SelectScreen biochemical kinase assay MAP4K2 (GCK)
T1 sequence (Q12851 1-820): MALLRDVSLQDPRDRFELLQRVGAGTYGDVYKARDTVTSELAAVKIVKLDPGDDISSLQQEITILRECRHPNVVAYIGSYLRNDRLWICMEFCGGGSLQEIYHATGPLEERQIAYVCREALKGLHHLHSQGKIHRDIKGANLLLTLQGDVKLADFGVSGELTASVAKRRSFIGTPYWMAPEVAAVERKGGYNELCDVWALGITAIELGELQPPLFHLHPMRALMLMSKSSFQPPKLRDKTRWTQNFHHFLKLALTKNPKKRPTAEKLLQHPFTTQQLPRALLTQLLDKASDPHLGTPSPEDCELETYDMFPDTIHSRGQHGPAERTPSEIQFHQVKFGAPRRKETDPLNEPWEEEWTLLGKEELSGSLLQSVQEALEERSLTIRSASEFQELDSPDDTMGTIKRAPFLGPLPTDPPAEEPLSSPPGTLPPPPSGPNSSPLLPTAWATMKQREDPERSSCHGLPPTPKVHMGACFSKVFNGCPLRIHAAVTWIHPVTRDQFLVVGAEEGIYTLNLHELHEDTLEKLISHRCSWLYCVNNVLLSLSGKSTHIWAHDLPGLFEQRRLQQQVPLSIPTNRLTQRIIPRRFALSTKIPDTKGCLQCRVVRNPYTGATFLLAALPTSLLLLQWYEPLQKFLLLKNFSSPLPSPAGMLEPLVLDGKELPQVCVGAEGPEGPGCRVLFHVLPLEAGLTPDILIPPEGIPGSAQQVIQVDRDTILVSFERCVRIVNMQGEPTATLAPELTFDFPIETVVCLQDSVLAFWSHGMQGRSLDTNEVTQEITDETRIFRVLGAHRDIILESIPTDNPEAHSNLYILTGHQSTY
Description: (§1) Thermo Fisher Scientific SelectScreen™ Biochemical Kinase Profiling Service Z′-LYTE™ Screening Protocol and Assay Conditions Assay Theory
(§2) The […] biochemical assay employs a fluorescence-based, coupled-enzyme format and is based on the differential sensitivity of phosphorylated and non-phosphorylated peptides to proteolytic cleavage. The peptide substrate is labeled with two fluorophores—one at each end—that make up a FRET pair. In the primary reaction, the kinase transfers the gamma-phosphate of ATP to a single tyrosine, serine or threonine residue in a synthetic FRET-peptide. In the secondary reaction, a site-specific protease recognizes and cleaves non-phosphorylated FRET-peptides. Phosphorylation of FRET-peptides suppresses cleavage by the Development Reagent. Cleavage disrupts FRET between the donor (i.e., coumarin) and acceptor (i.e., fluorescein) fluorophores on the FRET-peptide, whereas uncleaved, phosphorylated FRET-peptides maintain FRET. A ratiometric method, which calculates the ratio (Emission Ratio=Coumarin emission (445 nm)/Fluorescein emission (520 nm)) of donor emission to acceptor emission after excitation of the donor fluorophore at 400 nm, is used to quantitate reaction progress, as shown in the equation below. A significant benefit of this ratiometric method for quantitating reaction progress is the elimination of well-to-well variations in FRET-peptide concentration and signal intensities. As a result, the assay yields very high Z′-factor values (>0.7) at a low percent phosphorylation. Both cleaved and uncleaved FRET-peptides contribute to the fluorescence signals and therefore to the Emission Ratio. The extent of phosphorylation of the FRET-peptide can be calculated from the Emission Ratio. The Emission Ratio will remain low if the FRET-peptide is phosphorylated (i.e., no kinase inhibition) and will be high if the FRET-peptide is non-phosphorylated (i.e., kinase inhibition).
(§3) The Test Compounds are screened in 1% DMSO (final) in the well. For 10 point titrations, 3-fold serial dilutions are conducted from the starting concentration of the customer's choosing.
(§4) All Peptide/Kinase Mixtures are diluted to a 2× working concentration in the appropriate Kinase Buffer (see section Kinase Specific Assay Conditions for a complete description).
(§5) All ATP Solutions are diluted to a 4× working concentration in Kinase Buffer (50 mM HEPES pH 7.5, 0.01% BRIJ-35, 10 mM MgCl2, 1 mM EGTA). ATP Km apparent is previously determined using a Z″-LYTE assay.
(§6) The Development Reagent is diluted in Development Buffer (see section Kinase-Specific Assay Conditions—Direct and Cascade for a complete description).
(§7) Bar-coded Corning, low volume NBS, black 384-well plate (Corning Cat. #4514) • 1. 100 nL—100× Test Compound in 100% DMSO • 2. 2.4 μL—Kinase buffer • 3. 5 μL—2× Peptide/Kinase Mixture • 4. 2.5 μL—4×ATP Solution • 5. 30—second plate shake • 6. 60—minute Kinase Reaction incubation at room temperature • 7. 5 μL—Development Reagent Solution • 8. 30—second plate shake • 9. 60—minute Development Reaction incubation at room temperature • 10. Read on fluorescence plate reader and analyze the data Z′-LYTE Assay Controls
(§8) SelectScreen Kinase Profiling Service uses XLfit from IDBS. The dose response curve is curve fit to model number 205 (sigmoidal dose-response model).
The 2×MAP4K2 (GCK)/Ser/Thr 07 mixture is prepared in 50 mM HEPES pH 7.5, 0.01% BRIJ-35, 10 mM MgCl2, 1 mM EGTA. The final 10 μL Kinase Reaction consists of 0.11-3 ng MAP4K2 (GCK) and 2 μM Ser/Thr 07 in 50 mM HEPES pH 7.5, 0.01% BRIJ-35, 10 mM MgCl2, 1 mM EGTA. After the 1 hour Kinase Reaction incubation, 5 μL of a 1:45000 dilution of Development Reagent A is added.

FGFR2 = FGFR2 (Homo sapiens, UniProt P21802); assay: Z'-LYTE SelectScreen biochemical kinase assay FGFR2
Description: as §1, §2, §3, §4, §5, §6, §7, §8
The 2×FGFR2/Tyr 04 mixture is prepared in 50 mM HEPES pH 7.5, 0.01% BRIJ-35, 10 mM MgCl2, 4 mM MnCl2, 1 mM EGTA, 2 mM DTT. The final 10 μL Kinase Reaction consists of 0.19-1.99 ng FGFR2 and 2 μM Tyr 04 in 50 mM HEPES pH 7.5, 0.01% BRIJ-35, 10 mM MgCl2, 2 mM MnCl2, 1 mM EGTA, 1 mM DTT. After the 1 hour Kinase Reaction incubation, 5 μL of a 1:64 dilution of Development Reagent B is added.

[1] = 10 μmolar compound concentration, ATP at Km app, read-out: MAP4K2 (GCK) inhibition
[2] = read-out: % Inhibition mean MAP4K2 (GCK)
[3] = 10 μmolar compound concentration, ATP at Km app, read-out: FGFR2 inhibition
[4] = read-out: % Inhibition mean FGFR2

Sequence of FGFR2 (P21802 22-821): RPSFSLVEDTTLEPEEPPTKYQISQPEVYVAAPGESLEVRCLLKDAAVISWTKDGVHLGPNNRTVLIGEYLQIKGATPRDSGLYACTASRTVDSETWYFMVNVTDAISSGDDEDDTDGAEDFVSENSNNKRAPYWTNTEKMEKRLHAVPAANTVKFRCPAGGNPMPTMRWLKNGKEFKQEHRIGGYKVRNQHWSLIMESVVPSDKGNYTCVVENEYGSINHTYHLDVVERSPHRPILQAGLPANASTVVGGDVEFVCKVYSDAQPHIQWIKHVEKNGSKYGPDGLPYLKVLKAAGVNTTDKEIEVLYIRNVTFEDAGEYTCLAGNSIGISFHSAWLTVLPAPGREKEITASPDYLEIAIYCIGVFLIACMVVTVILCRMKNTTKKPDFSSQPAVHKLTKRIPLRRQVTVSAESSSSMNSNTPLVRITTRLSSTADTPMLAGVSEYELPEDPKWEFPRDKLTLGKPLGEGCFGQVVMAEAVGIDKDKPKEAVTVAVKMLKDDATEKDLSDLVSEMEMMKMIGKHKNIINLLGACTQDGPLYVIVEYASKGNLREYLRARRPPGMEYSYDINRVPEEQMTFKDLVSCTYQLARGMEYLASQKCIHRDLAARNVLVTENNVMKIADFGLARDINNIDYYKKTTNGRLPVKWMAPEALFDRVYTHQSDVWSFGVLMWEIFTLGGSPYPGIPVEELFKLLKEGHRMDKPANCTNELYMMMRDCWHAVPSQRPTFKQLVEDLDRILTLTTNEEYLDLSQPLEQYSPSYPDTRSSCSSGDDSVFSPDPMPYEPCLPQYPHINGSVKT

Cc1cc(F)ccc1-c1cccn2nc(NC3CCc4cnn(C)c4C3)nc12 (stereo not drawn) [Example 40, [8-(4-Fluoro-2-methyl-phenyl)-[1,2,4]triazolo[1,5-a]pyridine-2-yl]-(1-methyl-4,5,6,7-tetrahydro-1H-indazol-6-yl)-amine]
inhibition at 10 µM (MAP4K2 (GCK); [1]): < 40% | inhibition at 10 µM (MAP4K2 (GCK); [2]): 13% | inhibition at 10 µM (FGFR2; [3]): < 40% | inhibition at 10 µM (FGFR2; [4]): 17%

CCn1ncc2c1CCC(Nc1nc3c(-c4ccc(F)cc4C)cccn3n1)C2 (stereo not drawn) [Example 42, (1-Ethyl-4,5,6,7-tetrahydro-1H-indazol-5-yl)-[8-(4-fluoro-2-methyl-phenyl)-[1,2,4]triazolo[1,5-a]pyridine-2-yl]-amine]
inhibition at 10 µM (MAP4K2 (GCK); [1]): < 40% | inhibition at 10 µM (MAP4K2 (GCK); [2]): 21% | inhibition at 10 µM (FGFR2; [3]): < 40% | inhibition at 10 µM (FGFR2; [4]): 26%

CCn1ncc2c1CCC(Nc1nc3c(-c4ccccc4)cccn3n1)C2 (stereo not drawn) [Example 57, (1-Ethyl-4,5,6,7-tetrahydro-1H-indazol-5-yl)-(8-phenyl-[1,2,4]triazolo[1,5-a]pyridine-2-yl)-amine]
inhibition at 10 µM (MAP4K2 (GCK); [1]): < 40% | inhibition at 10 µM (MAP4K2 (GCK); [2]): 13% | inhibition at 10 µM (FGFR2; [3]): < 40% | inhibition at 10 µM (FGFR2; [4]): 22%

CCn1ncc2c1CCC(Nc1nc3c(-c4cccnc4)cccn3n1)C2 (stereo not drawn) [Example 63, (1-Ethyl-4,5,6,7-tetrahydro-1H-indazol-5-yl)-(8-pyridin-3-yl-[1,2,4]triazolo[1,5-a]pyridine-2-yl)-amine]
inhibition at 10 µM (MAP4K2 (GCK); [1]): < 40% | inhibition at 10 µM (MAP4K2 (GCK); [2]): 14% | inhibition at 10 µM (FGFR2; [3]): < 40% | inhibition at 10 µM (FGFR2; [4]): 16%

CCn1ncc2c1CCC(Nc1nc3c(-c4cccc(Cl)c4)cccn3n1)C2 (stereo not drawn) [Example 59, [8-(3-Chloro-phenyl)-[1,2,4]triazolo[1,5-a]pyridine-2-yl]-(1-ethyl-4,5,6,7-tetrahydro-1H-indazol-5-yl)-amine]
inhibition at 10 µM (MAP4K2 (GCK); [1]): < 40% | inhibition at 10 µM (MAP4K2 (GCK); [2]): 22% | inhibition at 10 µM (FGFR2; [3]): < 40% | inhibition at 10 µM (FGFR2; [4]): 11%

CCn1ncc2c1CCC(Nc1nc3c(-c4ccc(F)cc4)cccn3n1)C2 (stereo not drawn) [Example 55, (1-Ethyl-4,5,6,7-tetrahydro-1H-indazol-5-yl)-[8-(4-fluoro-phenyl)-[1,2,4]triazolo[1,5-a]pyridine-2-yl]-amine]
inhibition at 10 µM (MAP4K2 (GCK); [1]): < 40% | inhibition at 10 µM (MAP4K2 (GCK); [2]): 30% | inhibition at 10 µM (FGFR2; [3]): < 40% | inhibition at 10 µM (FGFR2; [4]): 13%

CCn1ncc2c1CC[C@@H](Nc1nc3c(-c4ccc(F)cc4C)cccn3n1)C2 [Example R-42, (R)-(1-Ethyl-4,5,6,7-tetrahydro-1H-indazol-5-yl)-[8-(4-fluoro-2-methyl-phenyl)-[1,2,4]triazolo[1,5-a]pyridine-2-yl]-amine]
inhibition at 10 µM (MAP4K2 (GCK); [1]): < 40% | inhibition at 10 µM (MAP4K2 (GCK); [2]): 25% | inhibition at 10 µM (FGFR2; [3]): < 40% | inhibition at 10 µM (FGFR2; [4]): 30%

Cc1cc(F)ccc1-c1cccn2nc(NC3CCc4c(cnn4CC(C)C)C3)nc12 (stereo not drawn) [Example 45, [8-(4-fluoro-2-methyl-phenyl)-[1,2,4]triazolo[1,5-a]pyridine-2-yl]-(1-isobutyl-4,5,6,7-tetrahydro-1H-indazol-5-yl)-amine]
inhibition at 10 µM (MAP4K2 (GCK); [1]): < 40% | inhibition at 10 µM (MAP4K2 (GCK); [2]): 24% | inhibition at 10 µM (FGFR2; [3]): < 40% | inhibition at 10 µM (FGFR2; [4]): 16%

CCn1ncc2c1CCC(Nc1nc3c(-c4ccccc4C)cccn3n1)C2 (stereo not drawn) [Example 56, (1-Ethyl-4,5,6,7-tetrahydro-1H-indazol-5-yl)-[8-(2-methyl-phenyl)-[1,2,4]triazolo[1,5-a]pyridine-2-yl]-amine]
inhibition at 10 µM (MAP4K2 (GCK); [1]): < 40% | inhibition at 10 µM (MAP4K2 (GCK); [2]): 16% | inhibition at 10 µM (FGFR2; [3]): < 40% | inhibition at 10 µM (FGFR2; [4]): 19%

CCn1ncc2c1CCC(Nc1nc3c(-c4ccc(OC)nc4)cccn3n1)C2 (stereo not drawn) [Example 71, (1-Ethyl-4,5,6,7-tetrahydro-1H-indazol-5-yl)-[8-(6-methoxy-pyridin-3-yl)-[1,2,4]triazolo[1,5-a]pyridine-2-yl]-amine]
inhibition at 10 µM (MAP4K2 (GCK); [1]): < 40% | inhibition at 10 µM (MAP4K2 (GCK); [2]): 26% | inhibition at 10 µM (FGFR2; [3]): < 40% | inhibition at 10 µM (FGFR2; [4]): 27%

Cc1cc(F)ccc1-c1cccn2nc(Nc3ccc4c(cnn4C)c3)nc12 [Example 9, [8-(4-fluoro-2-methyl-phenyl)-[1,2,4]triazolo[1,5-a]pyridine-2-yl]-(1-methyl-1H-indazol-5-yl)-amine]
inhibition at 10 µM (MAP4K2 (GCK); [1]): 40 to 80% | inhibition at 10 µM (MAP4K2 (GCK); [2]): 43% | inhibition at 10 µM (FGFR2; [3]): 40 to 80% | inhibition at 10 µM (FGFR2; [4]): 46%

CCCn1ncc2c1CCC(Nc1nc3c(-c4ccc(F)cc4C)cccn3n1)C2 (stereo not drawn) [Example 43, [8-(4-fluoro-2-methyl-phenyl)-[1,2,4]triazolo[1,5-a]pyridine-2-yl]-(1-propyl-4,5,6,7-tetrahydro-1H-indazol-5-yl)-amine]
inhibition at 10 µM (MAP4K2 (GCK); [1]): < 40% | inhibition at 10 µM (MAP4K2 (GCK); [2]): 9% | inhibition at 10 µM (FGFR2; [3]): < 40% | inhibition at 10 µM (FGFR2; [4]): 14%

CCn1ncc2c1CC[C@@H](Nc1nc3c(-c4ccc(F)c(Cl)c4)cccn3n1)C2 [Example R-61, (R)-[8-(3-Chloro-4-fluoro-phenyl)-[1,2,4]triazolo[1,5-a]pyridine-2-yl]-(1-ethyl-4,5,6,7-tetrahydro-1H-indazol-5-yl)-amine]
inhibition at 10 µM (MAP4K2 (GCK); [1]): < 40% | inhibition at 10 µM (MAP4K2 (GCK); [2]): 3% | inhibition at 10 µM (FGFR2; [3]): < 40% | inhibition at 10 µM (FGFR2; [4]): 12%

CCn1ncc2c1CCC(Nc1nc3c(-c4ccc(C)nc4)cccn3n1)C2 (stereo not drawn) [Example 67, (1-Ethyl-4,5,6,7-tetrahydro-1H-indazol-5-yl)-[8-(6-methyl-pyridin-3-yl)-[1,2,4]triazolo[1,5-a]pyridine-2-yl]-amine]
inhibition at 10 µM (MAP4K2 (GCK); [1]): < 40% | inhibition at 10 µM (MAP4K2 (GCK); [2]): 14% | inhibition at 10 µM (FGFR2; [3]): < 40% | inhibition at 10 µM (FGFR2; [4]): 30%

CCn1ncc2c1CCC(Nc1nc3c(-c4cncc(OC)c4)cccn3n1)C2 (stereo not drawn) [Example 70, (1-Ethyl-4,5,6,7-tetrahydro-1H-indazol-5-yl)-[8-(5-methoxy-pyridin-3-yl)-[1,2,4]triazolo[1,5-a]pyridine-2-yl]-amine]
inhibition at 10 µM (MAP4K2 (GCK); [1]): < 40% | inhibition at 10 µM (MAP4K2 (GCK); [2]): 7% | inhibition at 10 µM (FGFR2; [3]): < 40% | inhibition at 10 µM (FGFR2; [4]): 12%
